Reference: US20230357269A1 (LES LABORATOIRES SERVIER, priority 2020, published 2023)

Target: human recombinant LRRK2 protein (Homo sapiens (Human), UniProt Q5S007)
Experiment: LRRK2 Kinase Activity Assay (ADP-Glo)
Format: biochemical
Conditions: LRRK2 wt; LRRKtide peptide and ATP substrates; 1h-incubation at 37° C.
Protocol: LRRK2 Kinase reactions were carried out in 384-well white polystyrene plates in a final volume of 6 μl using ADP-Glo™ Kinase Assay kit (Promega Corp.). Compound and substrates (LRRKtide peptide and ATP) in assay buffer were first dispensed in wells. Kinase reaction was then started by the addition of human recombinant LRRK2 protein. After 1h-incubation at 37° C., the enzymatic reaction was stopped by the addition of 6 μl of ADP-Glo Reagent-1 and an additional 40-minutes incubation at 23° C. (residual ATP depletion). A final 30-minutes incubation after 12 μL reagent-2 addition (ADP to ATP conversion and luciferin/luciferase reaction) was performed before luminescent signal acquisition (EnVision™ multimode plate reader-PerkinElmer, Inc.). Data from 10 individual concentrations of tested compounds (N=2) were fitted (XLfit™-ID Business Solutions Ltd) to deliver IC50s (compound concentration leading to 50% inhibition of reference enzymatic activity).
The compounds are dissolved to 5 mM in DMSO. When needed, solutions are sonicated in a bath sonicator.
Table 2 provides the IC50 values of the compounds according to the invention, obtained using the above-mentioned kinase assay. Activities are represented as +++, ++ and +, having the following meanings: • +++ means IC50<10 nM • ++ means 10 nM≤IC50<100 nM • + means 100 nM≤IC50<1 μM.

human recombinant LRRK2 protein, sequence (Q5S007 whole entry): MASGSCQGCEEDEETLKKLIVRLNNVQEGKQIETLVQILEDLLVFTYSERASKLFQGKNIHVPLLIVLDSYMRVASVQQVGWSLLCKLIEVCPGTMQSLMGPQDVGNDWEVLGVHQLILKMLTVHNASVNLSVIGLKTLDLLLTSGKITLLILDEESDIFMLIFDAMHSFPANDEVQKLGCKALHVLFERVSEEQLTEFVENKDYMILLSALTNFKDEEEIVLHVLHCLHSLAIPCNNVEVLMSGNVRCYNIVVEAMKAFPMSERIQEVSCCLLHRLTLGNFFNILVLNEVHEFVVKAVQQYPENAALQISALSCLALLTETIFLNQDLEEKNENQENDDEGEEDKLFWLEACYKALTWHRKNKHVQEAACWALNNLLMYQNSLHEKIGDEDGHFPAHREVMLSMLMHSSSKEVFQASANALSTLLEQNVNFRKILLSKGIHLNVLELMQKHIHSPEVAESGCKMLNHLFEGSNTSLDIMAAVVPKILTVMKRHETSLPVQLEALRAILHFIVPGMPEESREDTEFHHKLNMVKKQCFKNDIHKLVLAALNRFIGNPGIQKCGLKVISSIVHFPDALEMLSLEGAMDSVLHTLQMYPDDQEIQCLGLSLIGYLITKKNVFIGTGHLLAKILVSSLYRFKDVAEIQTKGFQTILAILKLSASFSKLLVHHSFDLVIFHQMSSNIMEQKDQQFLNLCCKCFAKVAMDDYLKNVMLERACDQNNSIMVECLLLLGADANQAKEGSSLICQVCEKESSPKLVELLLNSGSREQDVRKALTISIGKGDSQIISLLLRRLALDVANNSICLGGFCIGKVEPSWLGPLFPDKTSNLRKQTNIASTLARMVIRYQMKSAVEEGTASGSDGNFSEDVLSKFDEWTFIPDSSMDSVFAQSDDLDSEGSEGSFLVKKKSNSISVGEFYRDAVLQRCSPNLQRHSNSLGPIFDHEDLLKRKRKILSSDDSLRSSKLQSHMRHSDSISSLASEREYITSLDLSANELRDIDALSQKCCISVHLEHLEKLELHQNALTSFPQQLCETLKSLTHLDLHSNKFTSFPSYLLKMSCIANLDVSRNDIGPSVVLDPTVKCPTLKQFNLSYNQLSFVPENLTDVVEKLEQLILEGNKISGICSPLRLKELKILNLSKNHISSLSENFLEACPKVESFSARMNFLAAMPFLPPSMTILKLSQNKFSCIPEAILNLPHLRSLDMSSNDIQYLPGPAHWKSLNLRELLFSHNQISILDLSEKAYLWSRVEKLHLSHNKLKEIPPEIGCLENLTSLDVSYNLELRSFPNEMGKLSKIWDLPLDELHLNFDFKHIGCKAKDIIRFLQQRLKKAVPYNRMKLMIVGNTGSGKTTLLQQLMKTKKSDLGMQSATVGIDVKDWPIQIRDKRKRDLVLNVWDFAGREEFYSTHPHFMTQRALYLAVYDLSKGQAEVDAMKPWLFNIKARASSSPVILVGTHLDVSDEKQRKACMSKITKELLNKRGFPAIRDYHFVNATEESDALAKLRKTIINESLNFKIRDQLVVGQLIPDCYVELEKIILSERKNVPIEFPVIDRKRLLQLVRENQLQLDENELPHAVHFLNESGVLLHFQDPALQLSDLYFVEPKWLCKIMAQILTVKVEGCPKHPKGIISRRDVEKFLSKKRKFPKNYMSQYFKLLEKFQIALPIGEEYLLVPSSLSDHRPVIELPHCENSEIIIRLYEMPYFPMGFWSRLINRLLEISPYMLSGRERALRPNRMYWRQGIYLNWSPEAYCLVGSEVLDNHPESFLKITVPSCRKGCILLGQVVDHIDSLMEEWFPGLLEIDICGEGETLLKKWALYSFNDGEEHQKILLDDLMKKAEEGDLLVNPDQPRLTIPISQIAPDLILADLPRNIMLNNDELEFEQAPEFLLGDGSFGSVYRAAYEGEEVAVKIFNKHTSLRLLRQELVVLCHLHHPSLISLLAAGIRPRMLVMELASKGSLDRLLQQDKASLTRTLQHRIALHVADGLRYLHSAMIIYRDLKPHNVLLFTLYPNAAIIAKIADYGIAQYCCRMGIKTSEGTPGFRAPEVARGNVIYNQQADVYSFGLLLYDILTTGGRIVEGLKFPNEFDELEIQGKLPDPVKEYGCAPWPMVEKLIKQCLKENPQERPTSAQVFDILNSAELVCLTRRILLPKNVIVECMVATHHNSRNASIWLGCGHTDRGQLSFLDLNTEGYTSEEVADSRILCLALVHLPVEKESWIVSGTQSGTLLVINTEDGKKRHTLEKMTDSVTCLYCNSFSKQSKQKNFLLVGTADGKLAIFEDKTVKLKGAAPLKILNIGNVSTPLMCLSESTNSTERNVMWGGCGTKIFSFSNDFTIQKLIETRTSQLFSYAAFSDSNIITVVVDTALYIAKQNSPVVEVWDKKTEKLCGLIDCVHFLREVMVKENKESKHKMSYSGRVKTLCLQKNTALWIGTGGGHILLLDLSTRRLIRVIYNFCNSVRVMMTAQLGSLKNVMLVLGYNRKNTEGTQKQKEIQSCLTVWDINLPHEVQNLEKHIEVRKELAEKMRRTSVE

Compound: Cn1ccc(-c2cc3cc(c2)-c2n[nH]c4ccc(cc24)OCCCNC(=O)OC3)n1 [Example 64, 4-(1-methyl-1H-pyrazol-3-yl)-8,14-dioxa-10,19,20-triazatetracyclo[13.5.2.1^2,6.0^18,21]tricosa-1(20),2(23),3,5,15(22),16,18(21)-heptaen-9-one]
- IC50: < 10 nM

Compound: C[C@@H]1OC(=O)NCCCOc2ccc3[nH]nc(c3c2)-c2cccc1c2 [Example 65, (7S)-7-methyl-8,14-dioxa-10,19,20-triazatetracyclo[13.5.2.1^2,6.0^18,21]tricosa-1(20),2(23),3,5,15(22),16,18(21)-heptaen-9-one]
- IC50: 10 to 100 nM

Compound: O=C1NCCCOc2ccc3[nH]nc(c3c2)-c2cnn(c2)CCO1 [Example 51, 8,14-dioxa-4,5,10,19,20-pentaazatetracyclo[13.5.2.1^2,5.0^18,21]tricosa-1(20),2(23),3,15(22),16,18(21)-hexaen-9-one]
- IC50: < 10 nM

Compound: CC(C)Oc1cc2cc(c1)-c1n[nH]c3ccc(cc13)OCCCNC(=O)OC2 [Example 55, 4-(propan-2-yloxy)-8,14-dioxa-10,19,20-triazatetracyclo[13.5.2.1^2,6.0^18,21]tricosa-1(20),2,4,6(23),15,17,21-heptaen-9-one]
- IC50: < 10 nM

Compound: COCC1CCOc2ccc3[nH]nc(c3c2)-c2cccc(c2)COC(=O)N1 (stereo not shown) [Example 83, 11-(methoxymethyl)-8,14-dioxa-10,19,20-triazatetracyclo[13.5.2.1^2,6.0^18,21]tricosa-1(20),2(23),3,5,15(22),16,18(21)-heptaen-9-one]
- IC50: < 10 nM

Compound: C[C@@H]1CCNC(=O)OCc2cncc(c2)-c2n[nH]c3ccc(nc23)O1 [Example 164, (13R)-13-methyl-8,14-dioxa-4,10,19,20,22-pentaazatetracyclo[13.5.2. 1^2,6.0^18,21]tricosa-1(20),2(23),3,5,15,17,21-heptaen-9-one]
- IC50: < 10 nM

Compound: CCC1OC(=O)NCCCOc2ccc3[nH]nc(c3c2)-c2cccc1c2 (single isomer, unassigned) [Example 115, (7R)- or (7S)-7-ethyl-8,14-dioxa-10,19,20-triazatetracyclo[13.5.2.1^2,6.0^18,21]tricosa-1(20),2,4,6(23),15,17,21-heptaen-9-one]
- IC50: 100 to 1000 nM

Compound: O=C1NCCCOc2ccc3[nH]nc(c3c2)-c2cc(F)c(F)c(c2)CO1 [Example 29, 4,5-difluoro-8,14-dioxa-10,19,20-triazatetracyclo[13.5.2.1^2,6.0^18,21]tricosa-1(20),2,4,6(23),15,17,21-heptaen-9-one]
- IC50: < 10 nM

Compound: C[C@H]1CCNC(=O)OCc2cncc(n2)-c2n[nH]c3ccc(cc23)O1 [Example 156, (13S)-13-methyl-8,14-dioxa-4,10,19,20,23-pentaazatetracyclo[13.5.2. 1^2,6.0^18,21]tricosa-1(20),2(23),3,5,15(22),16,18(21)-heptaen-9-one]
- IC50: < 10 nM

Compound: O=C1NCCCOc2ccc3[nH]nc(c3c2)-c2cc(cc(N3CCC(F)(F)CC3)c2)CO1 [Example 20, 4-(4,4-difluoropiperidin-1-yl)-8,14-dioxa-10,19,20-triazatetracyclo[13.5.2.1^2,6.0^18,21]tricosa-1(20),2,4,6(23),15,17,21-heptaen-9-one]
- IC50: < 10 nM

Compound: COc1ccc2cc1COC(=O)NCCCOc1ccc3[nH]nc-2c3c1 [Example 19, 5-methoxy-8,14-dioxa-10,19,20-triazatetracyclo[13.5.2.1^2,6.0^18,21]tricosa-1(20),2,4,6(23),15,17,21-heptaen-9-one]
- IC50: < 10 nM

Compound: O=C1NCCOc2ccc3[nH]nc(c3c2)-c2cnn(c2)CCCO1 [Example 121, 9,14-dioxa-4,5,11,19,20-pentaazatetracyclo[13.5.2.1^2,5.0^18,21]tricosa-1(20),2(23),3,15,17,21-hexaen-10-one]
- IC50: 100 to 1000 nM

Compound: O=C1NCCCOc2ccc3[nH]nc(c3c2)-c2cc(cc(CN3CCCC3)c2)CO1 [Example 42, 4-[(pyrrolidin-1-yl)methyl]-8,14-dioxa-10,19,20-triazatetracyclo[13.5.2.1^2,6.0^18,21]tricosa-1(20),2,4,6(23),15,17,21-heptaen-9-one]
- IC50: < 10 nM
